According to PMC8389807 (Journal of Medicinal Chemistry, 2021):
Where two headings read alike, the source gives them in different places.

How the values were obtained:
[1] = system: BrCr Lab Strain of EV-A71; test: Antiviral activity against the BrCr lab strain of EV-A71 in RD cells (CPE reduction, MTS/PMS); assay type: cell-based; conditions: Enterovirus A, EVA71, RD, read-out: EC50
[2] = system: coxsackievirus B3 Nancy strain; test: microbe, parasite or virus in culture; assay type: cell-based; conditions: Enterovirus B, Vero A host cell
[3] = system: enterovirus D68 CU70 strain; test: microbe, parasite or virus in culture; assay type: cell-based; conditions: Enterovirus D, HeLa Rh host cell
[4] = system: rhinovirus 2; test: microbe, parasite or virus in culture; assay type: cell-based; conditions: Enterovirus; rhinovirus 2, HeLa Rh host cell
[5] = system: rhinovirus 14; test: microbe, parasite or virus in culture; assay type: cell-based; conditions: Enterovirus; rhinovirus 14, HeLa Rh host cell
[6] = system: EV71 genogroup B2 strain 11316; test: microbe, parasite or virus in culture; assay type: cell-based; conditions: Enterovirus A, genogroup B2, strain 11316, RD cells
[7] = system: EV71 genogroup B5 strain TW/70902/08; test: microbe, parasite or virus in culture; assay type: cell-based; conditions: Enterovirus A, genogroup B5, strain TW/70902/08, RD cells
[8] = system: EV71 genogroup C2 strain H08300 461#812; test: microbe, parasite or virus in culture; assay type: cell-based; conditions: Enterovirus A, genogroup C2, strain H08300 461#812, RD cells
[9] = system: EV71 genogroup C4 strain TW/1956/05; test: microbe, parasite or virus in culture; assay type: cell-based; conditions: Enterovirus A, genogroup C4, strain TW/1956/05, RD cells
[10] = system: EV-A71 VP1 (S184T); assay type: cell-based
[11] = system: EV-A71 VP1 (P246S); assay type: cell-based
[12] = system: EV-A71 VP1 (S184T/P246S); assay type: cell-based
[13] = system: HIV-1 (NL4.3); test: microbe, parasite or virus in culture; assay type: cell-based; conditions: Human immunodeficiency virus 1, MT4; MT-4 cells; 50% reduction of virus-induced cytopathic effect
[14] = system: HIV-2 (ROD); test: Anti-HIV-2 activity in MT-4 cells (CPE, MTS/PES); assay type: cell-based; conditions: Human immunodeficiency virus 2, MT4, MT-4 cells; 50% reduction of virus-induced cytopathic effect; read-out: HIV-2 (ROD) EC50
[15] = target: T1, recombinant HIV-1 IIIB gp120 (Human immunodeficiency virus type 1 group M subtype B, UniProt P03375); test: biochemical; assay type: binding; conditions: SPR, four replicates
T1 construct: purchased ImmunoDx, Woburn, Massachusetts; host or cells: Chinese hamster ovary cells

[16] = target: T2, gp120-CD4 binding (Human immunodeficiency virus type 1 group M subtype B, UniProt P03375); test: biochemical
T2 construct: […]; purchased CD4: Life Technologies Europe, Merelbeke, Belgium; gp120: not restated here (ImmunoDx inferred)

[17] = system: HIV-1 (NL4.3); test: microbe, parasite or virus in culture; assay type: cell-based; conditions: Human immunodeficiency virus 1; CXCR4-tropic strain, PBMC; read-out: HIV-1 (NL4.3) EC50
[18] = system: HIV-1 (Ba-L); test: microbe, parasite or virus in culture; assay type: cell-based; conditions: Human immunodeficiency virus 1, BAL; CCR5-tropic strain, PBMC; read-out: HIV-1 (Ba-L) EC50
[19] = target: gp120 binding of mAb 2G12 (Human immunodeficiency virus type 1, UniProt P03377); test: cell-based; assay type: cell-based; conditions: HIV-1 NL4.3-infected MT-4 cells, flow cytometry
[20] = target: gp120 binding of mAb clone 447-52D (Human immunodeficiency virus type 1, UniProt P03377); test: Competition with anti-gp120 mAb 447-52D on HIV-1-infected MT-4 cells (flow cytometry); assay type: cell-based, HIV-1 NL4.3
Description: (§1) We then investigated the putative gp120 binding site for this class of compounds using competition-binding experiments with mAbs directed to different protein regions: (i) human mAb clone 2G12, whose epitope, composed entirely of N-linked glycans, is centered at position N332;[56]
(§2) These tests were carried out in cell culture using CD4^+ MT-4 T cells that express high levels of gp120 on their membrane when they become infected.
anti-mouse mAb). This is background staining or called negative control (NC).
bPositive control. HIV-1 infected cells stained with the first (anti-HIV-1 envelope antibody) and then the
This is the positive control (PC).
Finally, the mannose-specific lectin Hippeastrum hybrid agglutinin

[21] = target: gp120 binding of mAb clone 9284 (Human immunodeficiency virus type 1, UniProt P03377); test: Competition with anti-gp120 mAb 9284 on HIV-1-infected MT-4 cells (flow cytometry); assay type: cell-based, HIV-1 NL4.3
Description: as §1, §2

[22] = target: gp120 binding of mAb 9305 (Human immunodeficiency virus type 1, UniProt P03377); test: cell-based; conditions: HIV-1 NL4.3-infected MT-4 cells, flow cytometry
[23] = in vitro; conditions: human
[24] = in vitro; conditions: human; remark: listed apart in the source

## O=C(CCOCC(COCCC(=O)NC(Cc1c(-c2cc(C(=O)O)cc(C(=O)O)c2)[nH]c2c(-c3cc(C(=O)O)cc(C(=O)O)c3)cccc12)C(=O)O)(COCCC(=O)NC(Cc1c(-c2cc(C(=O)O)cc(C(=O)O)c2)[nH]c2c(-c3cc(C(=O)O)cc(C(=O)O)c3)cccc12)C(=O)O)COCCC(=O)NC(Cc1c(-c2cc(C(=O)O)cc(C(=O)O)c2)[nH]c2c(-c3cc(C(=O)O)cc(C(=O)O)c3)cccc12)C(=O)O)NC(Cc1c(-c2cc(C(=O)O)cc(C(=O)O)c2)[nH]c2c(-c3cc(C(=O)O)cc(C(=O)O)c3)cccc12)C(=O)O (stereo not drawn) [Compound 33]
[1]; BrCr lab strain, RD cells, 50% reduction of virus-induced CPE
  EC50: 40 ± 10 nM
[1]; BrCr wild type (cross-resistance study)
  EC50: 30 ± 10 nM
[1]; enterovirus panel, enterovirus A71 BrCr strain, RD host cell
  EC50: 40 ± 7 nM
[1]; genogroup A, BrCr, RD cells (clinical isolate panel)
  EC50: 43 ± 6 nM
[2]
  EC50: > 50000 nM
[3]
  EC50: > 50000 nM
[4]
  EC50: > 50000 nM
[5]
  EC50: > 50000 nM
[6]
  EC50: 101 ± 11 nM
[7]
  EC50: 10 ± 1.5 nM
[8]
  EC50: 120 ± 6 nM
[9]
  EC50: 11 ± 0.2 nM
[10]
  EC50: 100 ± 10 nM
[11]
  EC50: 30 ± 10 nM
[12]
  EC50: 60 ± 40 nM
[13]
  EC50: 6 ± 5 nM
[14]
  EC50: ~60 nM
[15]; 1:1 Langmuir model
  kd: 2.45 ± 0.34 ×10^–3 s^–1
[15]; 1:1 Langmuir model, read-out: ka
  kon: 3340 ± 1020 M⁻¹ s⁻¹
[15]; apparent KD
  Kd: 840 ± 340 nM
[16]; SPR, 25 nM gp120, immobilized CD4, read-out: concentration inhibiting 50% of gp120-CD4 binding
  IC50: 10 to 40 nM
[16]; inhibition of gp120-CD4 binding
  times more potent than AL-471: at least 16
[17]
  EC50: 33 nM
[18]
  EC50: 36 nM
[19]
  2G12 IC50: did not prevent the binding
  IC50: > 100000 nM
[20]; HIV-1 NL4.3-infected MT-4 cells, flow cytometry, average, read-out: 447-52D IC50
  IC50: 6800 nM
[20]; MT4, mAb 447-52D, 0.16 µM, Table S1, read-out: % inhibition of antibody binding
  inhibition at 0.16 µM: 16.9%
[20]; MT4, mAb 447-52D, 0.8 µM, Table S1, read-out: % inhibition of antibody binding
  inhibition at 0.8 µM: 23.9%
[20]; MT4, mAb 447-52D, 4 µM, Table S1, read-out: % inhibition of antibody binding
  inhibition at 4 µM: 36.5%
[20]; MT4, mAb 447-52D, 20 µM, Table S1, read-out: % inhibition of antibody binding
  inhibition at 20 µM: 76.9%
[20]; mAb 447-52D, 0.16 µM, Table S1, listed as AL-518, 0.16 µM
  % inhibition of antibody binding: 17%
[20]; mAb 447-52D, 20 µM, Table S1, listed as AL-518, 20 µM
  % inhibition of antibody binding: 77%
[20]; mAb 447-52D, Table S1, read-out: IC50
  IC50: 6850 nM
[21]; HIV-1 NL4.3-infected MT-4 cells, flow cytometry, average, read-out: 9284 IC50
  IC50: 3800 nM
[21]; MT4, mAb 9284, 0.16 µM, Table S2, read-out: % inhibition of antibody binding
  inhibition at 0.16 µM: 25.1%
[21]; MT4, mAb 9284, 0.8 µM, Table S2, read-out: % inhibition of antibody binding
  inhibition at 0.8 µM: 37.9%
[21]; MT4, mAb 9284, 4 µM, Table S2, read-out: % inhibition of antibody binding
  inhibition at 4 µM: 51.4%
[21]; MT4, mAb 9284, 20 µM, Table S2, read-out: % inhibition of antibody binding
  inhibition at 20 µM: 61.1%
[21]; mAb 9284, 0.16 µM, Table S2, listed as AL-518, 0.16 µM
  % inhibition of antibody binding: 25%
[21]; mAb 9284, 20 µM, Table S2, listed as AL-518, 20 µM
  % inhibition of antibody binding: 61%
[21]; mAb 9284, Table S2, read-out: IC50
  IC50: 3370 nM
[22]
  IC50: > 100000 nM
[23]
  CC50: > 100000 nM
[24]
  CC50: > 100000 nM
